Assay results as given in PubChem BioAssay AID1117337 (Cheminformatics & Chemogenomics Research Group (CCRG), …, 2015).
Active and inactive are the calls of the source. The rule behind the calls is not given here.

system: ADSC/ECFC co-culture, VEGF-stimulated, CD31 tube area; assay: inhibition of endothelial tube formation, dose response, imaging, VEGF stimulation, CD31 staining, tube area, IC50 (AID 1117337)

Row | SMILES | IC50
1 | C[C@H]1O[C@@H](O[C@H]2CC[C@@]3(C)[C@H](CC[C@@H]4[C@@H]3C[C@@H](O)[C@]3(C)[C@@H](C5=CC(=O)OC5)CC[C@]43O)C2)C[C@H](O)[C@@H]1O[C@H]1C[C@H](O)[C@H](O[C@H]2C[C@H](O)[C@H](O[C@@H]3O[C@H](CO)[C@@H](O)[C@H](O)[C@H]3O)[C@@H](C)O2)[C@@H](C)O1 | 0.0614 µM
2 | COC(=O)Nc1nc2ccc(C(=O)c3ccccc3)cc2[nH]1 | 0.37 µM
3 | CSc1ccc2c(c1)N(CCC1CCCCN1C)c1ccccc1S2 (stereo not given) | > 10 µM (inactive)
4 | CCCCCCCC(=O)OCC(COC(=O)CCCCCCC)OC(=O)CCCCCCC | > 10 µM (inactive)
5 | CN(Cc1cnc2nc(N)nc(N)c2n1)c1ccc(C(=O)N[C@@H](CCC(=O)O)C(=O)O)cc1 | > 10 µM (inactive)
6 | COC1=C(OC)C(=O)C(CCCCCCCCCCO)=C(C)C1=O | > 10 µM (inactive)
7 | CCOC(=O)C1=C(C)NC(C)=C(C(=O)OCC)C1c1ccccc1/C=C/C(=O)OC(C)(C)C | > 10 µM (inactive)
8 | O=C1CC[C@H](C(=O)N2CCCCC2)N1 | > 10 µM (inactive)
9 | S=c1nc[nH]c2nc[nH]c12 | 0.915 µM
10 | O[C@@H](CNC[C@H](O)[C@H]1CCc2cc(F)ccc2O1)[C@@H]1CCc2cc(F)ccc2O1 | > 10 µM (inactive)
11 | O=C1NC2CCCCN2C12CCN(CCCN1c3ccccc3CCc3ccc(Cl)cc31)CC2 (stereo not given) | > 10 µM (inactive)
12 | CC(=O)Oc1ccc(C2(c3ccc(OC(C)=O)cc3)C(=O)Nc3ccccc32)cc1 | > 10 µM (inactive)
13 | C/C(=C(/OCCOc1ccc(Cl)cc1)c1ccc(Cl)cc1Cl)n1ccnc1 | 5.84 µM (inactive)
14 | COc1ccc(CCN2CCC(Nc3nc4ccccc4n3Cc3ccc(F)cc3)CC2)cc1 | > 10 µM (inactive)
15 | O=C(CCl)c1ccc(Cl)cc1Cl | 2.49 µM
16 | CC(C)(C)c1ccc(C(O)CCCN2CCC(C(O)(c3ccccc3)c3ccccc3)CC2)cc1 (stereo not given) | 3.25 µM
17 | S=C=Nc1ccc(N=C=S)cc1 | > 10 µM (inactive)
18 | Cc1c(N)cccc1C(F)(F)F | > 10 µM (inactive)
19 | CCCCCCCCCCCCCCCC[N+](C)(C)CC | 1.14 µM
20 | CC(=O)NC(=O)c1ccccc1O | > 10 µM (inactive)

Row | SMILES | IC50
21 | Cc1ccc(Nc2nccc(N(C)c3ccc4c(C)n(C)nc4c3)n2)cc1S(N)(=O)=O | 0.0465 µM
22 | Cc1cc(N)c2ccccc2[n+]1CCCCCCCCCC[n+]1c(C)cc(N)c2ccccc21 | > 10 µM (inactive)
23 | CC(COc1ccccc1)NN (stereo not given) | > 10 µM (inactive)
24 | CC(=O)N(CC(O)CN(C(C)=O)c1c(I)c(C(=O)NCC(O)CO)c(I)c(C(=O)NCC(O)CO)c1I)c1c(I)c(C(=O)NCC(O)CO)c(I)c(C(=O)NCC(O)CO)c1I (stereo not given) | > 10 µM (inactive)
25 | CC1(C)[C@H](C=C(Cl)Cl)[C@@H]1C(=O)OCc1c(F)c(F)cc(F)c1F | > 10 µM (inactive)
26 | CN(C)C(=O)Oc1cccc([N+](C)(C)C)c1 | > 10 µM (inactive)
27 | CCCSS/C(CCO)=C(\C)N(C=O)Cc1cnc(C)nc1N | > 10 µM (inactive)
28 | CCCCCCCCCCCCCCCC[N+](C)(C)Cc1ccccc1 | 2.53 µM
29 | CCCCCCC[N+](CC)(CC)CCCCc1ccc(Cl)cc1 | 6.34 µM (inactive)
30 | O=C1c2c(O)ccc(O)c2C(=O)c2c(NCCNCCO)ccc(NCCNCCO)c21 | 0.0044 µM
31 | O=C1c2c(O)cccc2Cc2cccc(O)c21 | 0.604 µM
32 | O=C(O)CCCc1ccc(N(CCCl)CCCl)cc1 | 1.24 µM
33 | CO[C@H]1O[C@@H]2O[C@@]3(C)CC[C@H]4[C@H](C)CC[C@@H]([C@@H]1C)[C@@]24OO3 | > 10 µM (inactive)
34 | CCOP(=S)(OCC)SCSc1ccc(Cl)cc1 | > 10 µM (inactive)
35 | COC(=O)C1=C(C)NC(C)=C(C(=O)OC(C)(C)CN(C)CCC(c2ccccc2)c2ccccc2)C1c1cccc([N+](=O)[O-])c1 (stereo not given) | > 10 µM (inactive)
36 | COc1ccc2cc3[n+](cc2c1OC)CCc1cc2c(cc1-3)OCO2 | 2.68 µM
37 | Cc1cccc(Nc2cc(Cl)nc(SCC(=O)O)n2)c1C | > 10 µM (inactive)
38 | CC[C@H](C)C(=O)O[C@H]1C[C@@H](C)C=C2C=C[C@H](C)[C@H](CC[C@@H]3C[C@@H](O)CC(=O)O3)[C@H]21 | 3.27 µM
39 | COc1ccc2c(c1)c1c3n2CCN(C)C3=NCC1 | > 10 µM (inactive)
40 | CCC(C(=O)OCCOCCN(CC)CC)c1ccccc1 (stereo not given) | > 10 µM (inactive)
